Experimental data from US20070031336A1, “3H-phenoxazine derivatives suitable as near-infrared imaging agents, preparation an use thereof” (priority 2003, published 2007).
pKd: −log10 of the molar value.

How the values were obtained:
[1] = exc. 595 nm; cited from earlier work
[2] = UV/VIS absorption spectra; assay type: physicochemical
Protocol: (§1) UV/VIS and fluorescence spectra are recorded and analyzed. For UV/VIS spectra, a Lambda 19 spectrometer from Perkin Elmer equipped with cells of 1.000 cm pathlength is used. The scan rate is 120 nm/min. The fluorescence data are obtained on a Spex Fluorolog (I.S.A.) spectrometer equipped with a cooled R928 detector (Slit 1 mm). Quantum yields are determined by using Cresylviolett (exc. 595 nm, yield=0.54) as standard.

[3] = Fluorescence spectra and quantum yield; assay type: physicochemical; settings: for Fluorescence φ (quantum yield): standard Cresylviolett
Protocol: as §1

aggregated Aβ = target: T1, aggregated Aβ (Homo sapiens, UniProt P05067); assay: Thioflavine T displacement from aggregated Aβ; assay type: binding; settings: fluorescence 460-560 nm, excitation 445 nm
T1 construct: aggregated Aβ peptide Aβ1-140 in solution
Protocol: (§2) Binding of the agent of the invention (compound Ex. 3) to aggregated Aβ peptide Aβ1-140 in solution is investigated by differential fluorescence spectroscopy and thioflavine displacement. […] Difference spectra are recorded at different concentrations of the agent of the invention (compound Ex. 3) with the magnitude of the fluorescence shift being dependent on the concentration of aggregated Aβ. Saturation is observed at high concentrations of the agent of the invention (compound Ex. 3), and the Kd-value for the agent of the invention (compound Ex. 3) is estimated to be 0.2 μM. In another experiment, aggregated Aβ is incubated with thioflavine T, where fluorescence intensity at 460-560 nm (excitation 445 nm) represents thioflavine bound to aggregated Aβ.

AD plaques = assay: In vivo near-infrared imaging in APP23 mice; set-up: species or system mouse; settings: female 16-months-old transgenic APP23 mice, 3 mg/kg i.v.
Protocol: For in vivo near-infrared imaging, 10- to 24-months-old transgenic APP23 mice (3≦n≦5) and as control, non-transgenic APP23 mice of the same age (3≦n≦4) are injected intravenously (i.v.) into the tail-vein with 0.1, 1 and 3 mg/kg agent of invention (0.1, 1 and 3 mg/10 ml in 0.9% saline). Images are recorded 30, 60, 120 and 240 min after systemic administration.

[4] = target: T2, aggregated Aβ peptide Aβ1-140 (Homo sapiens, UniProt P05067); assay: Binding to aggregated Aβ in solution by differential fluorescence spectroscopy
T2 construct: aggregated Aβ peptide Aβ1-140 in solution
Protocol: as §2

T2 sequence (P05067 672-711 limits assumed): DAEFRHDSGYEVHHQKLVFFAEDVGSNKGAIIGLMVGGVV
T1 sequence (P05067 672-711 limits assumed): as above

Structure (SMILES)	Quantum yield of the standard [1]	Absorption ε ([2]; solvent H2O) [I/Mcm]	Absorption λmax ([2]; solvent H2O) [nm]	Absorption ε ([2]; solvent methanol) [I/Mcm]	Absorption λmax ([2]; solvent methanol) [nm]	Absorption λmax ([2]; solvent mouse serum) [nm]	Fluorescence λmax ([3]; solvent H2O) [nm]	Fluorescence φ (quantum yield) ([3]; solvent H2O) [%]	Fluorescence λmax ([3]; solvent methanol) [nm]	Fluorescence φ (quantum yield) ([3]; solvent methanol) [%]	Fluorescence λmax ([3]; solvent mouse serum) [nm]	Fluorescence φ (quantum yield) ([3]; solvent mouse serum) [%]	Effect on fluorescence of thioflavine bound to aggregated Aβ (aggregated Aβ)	pKd (aggregated Aβ; thioflavine concentrations 0.37 μM-3 μM, read-out: apparent binding constants)	Specific binding to AD plaques (FIG. 1) (AD plaques)	pKd ([4]; estimated from difference spectra, saturation at high concentrations)	Change of fluorescence spectrum upon β-amyloid binding ([4]; range of 680-720 nm)
N=c1ccc2nc3c(cc(N)c4ccccc43)oc-2c1 [Cresylviolett]	0.54																
CC[N+]1=c2cc3c(cc2CCC1)=Nc1cc2c(cc1O3)N(C)CCO2.[Cl-] [Ex. 2, 8-Ethyl-4-methyl-2,3,4,9,10,11-hexahydro-1,6-dioxa-4,13-diaza-8-azonia-pentacen chloride]		56700	657	67430	649	658	677	24	677	61	677	28					
CN1CCOc2cc3c(cc21)Oc1cc2c(cc1=N3)OCC[N+]=2C.F[B-](F)(F)F [Ex. 3, 4,8-Dimethyl-3,8,9,10-tetrahydro-2H-1,6,11-trioxa-8,13-diaza-4-azonia-pentacen tetrafluoroborate]		61930	650	64570	644	650	670	37	670	61	670	41	concentration-dependent fluorescence reduction	6.70 to 7.00	specific binding	~6.70	slightly reduced fluorescence intensity
CN1CCOc2cc3c(cc21)Oc1cc2c(cc1=N3)SCC[N+]=2C.[Cl-] [Ex. 4, 4,8-Dimethyl-2,3,9,10-tetrahydro-4H-1,6-dioxa-11-thia-4,13-diaza-8-azonia-pentacen chloride]		12880	665	13920	659	665	695	12	695	28	695	13					
